From patent US6740635B2, “Antiviral linear polymers” (Biomolecular Research Institute Ltd., priority 1996, dated 2004) come the findings set out here.

Converted amounts (≈) assume the structure as drawn. Read-outs that look alike come from different tables or passages of the source. A value given as a limit tells only on which side of the number the result lay.

Data set [1] concerns VZV. Description: VZV viral count or plaque reduction. It counts as cell-based, Varicella Zoster Virus. The settings on record: Human alphaherpesvirus 3.
Data set [2] has as its system HSV-1. Description: HSV-1 CPE Inhibition. The settings on record: Human alphaherpesvirus 1, HFF, in Homo sapiens, read-out: EC50, HSV-1 CPE Inhibition.
Data set [3] has as its system HSV-2. Description: HSV-2 CPE Inhibition. The settings on record: Human alphaherpesvirus 2, HFF, in Homo sapiens, read-out: EC50, HSV-2 CPE Inhibition.
Data set [4] has as its system HSV-1. Description: HSV-1 Plaque Reduction. The settings on record: Human alphaherpesvirus 1, HFF, in Homo sapiens, read-out: EC50, HSV-1 Plaque Reduction.
Data set [5] concerns HSV-2. Description: HSV-2 Plaque Reduction. The settings on record: Human alphaherpesvirus 2, HFF, in Homo sapiens, read-out: EC50, HSV-2 Plaque Reduction.
The test system of data set [6] is HIV 1 IIIB. Description: microbe, parasite or virus in culture. It counts as cell-based, Human Immunodeficiency Virus type 1. The settings on record: Human immunodeficiency virus 1, IIIB.
Data set [7] is described as follows: in vitro.
The subject of data set [8] is uninfected cells.
A short description of data set [9]: in vitro. The settings on record: mouse.
The test system of data set [10] is Cytomegalovirus (Davis strain). Description: HCMV CPE Inhibition. The settings on record: Human betaherpesvirus 5, HFF, in Homo sapiens, read-out: EC50, HCMV CPE Inhibition.
In data set [11] the test system is Cytomegalovirus (Davis strain). Description: HCMV Plaque Reduction. The settings on record: Human betaherpesvirus 5, HFF, in Homo sapiens, read-out: EC50, HCMV Plaque Reduction.
Data set [12] concerns MCMV. Description: MCMV Plaque Reduction. The settings on record: Mus musculus, MEF, read-out: EC50, MCMV Plaque Reduction.
The subject of data set [13] is RSV; Long. Description: RSV Long CPE-inhibition. In kind it is cell-based, Respiratory Syncytial Virus.
The test system of data set [14] is RSV; A2. Description: RSV A2 viral count or plaque reduction. It counts as cell-based. The settings on record: human respiratory syncytial virus, Table 5.
Data set [15] has as its system RSV; A2. Description: RSV A2 Neutral Red cell count. It counts as cell-based. The settings on record: human respiratory syncytial virus, read-out: NR = Neutral Red cell count EC50.
Data set [16] deals with Flu B. Description: microbe, parasite or virus in culture. It counts as cell-based. The settings on record: Influenza B virus, read-out: NR = Neutral Red cell count EC50.
Data set [17] deals with CMV. Description: microbe, parasite or virus in culture. In kind it is cell-based. The settings on record: Human betaherpesvirus 5, read-out: CPE-inhibition EC50.
In data set [18] the test system is RSV; A2. Description: RSV A2 virus yield.

In the case of `Nc1nc2c(ncn2COCCO)c(=O)[nH]1` [Acyclovir], the EC50 (in general, the concentration needed to bring the measured effect to its halfway point) in [1] worked out at 0.5 µg/mL (≈ 2.22 µM); in data set [2], 0.06 µg/mL (≈ 0.266 µM); in [3] it was 0.2 µg/mL (≈ 0.888 µM); in [4] it was 0.3 µg/mL (≈ 1.33 µM); in [5] it was 0.6 µg/mL (≈ 2.66 µM).
With `Cc1cn([C@H]2C[C@H](N=[N+]=[N-])[C@@H](CO)O2)c(=O)[nH]c1=O` [AZT, Zidovudine], the EC50 in data set [6] was determined as 0.0001 µg/mL; in data set [6] (read-out: CPE-inhibition EC50), 0.37 nM. The CC50 in [7] (CC50, parallel to HIV 1 IIIB test, Table 1, standards) amounted to 1.17 µg/mL; in data set [7] (CPE-inhibition (CC50), parallel to HIV-1 IIIB test, Table 5, Concentrations μM) it was 4.38 µM.
As to “poly-L-lysyl [(8-octanamido)-5-acetamido-3,5-dideoxy-2-thio-D-glycero-α-D-galacto-2-nonulopyranosidoic acid]n [BRI 6150]”, in data set [8], the “Virus Yield (CC50)” value was above 1000 µg/mL.
Molecule `Nc1nc(O)c2ncn(COC(CO)CO)c2n1` [Ganciclovir] displayed a CC50 in data set [9] of 0.5 µg/mL (≈ 1.96 µM). The EC50 was 0.1 µg/mL (≈ 0.392 µM) in [10], 0.2 µg/mL (≈ 0.784 µM) in [11] and 0.6 µg/mL (≈ 2.35 µM) in [12].
Consider `NC(=O)c1ncn([C@@H]2O[C@H](CO)[C@@H](O)[C@H]2O)n1` [Ribavirin], for which the “CPE-inhibition EC50” value in data set [13] worked out at 7 µg/mL. Besides, the EC50 in data set [13] (human respiratory syncytial virus) was determined as 10 µg/mL (≈ 40.9 µM); in data set [14], 2 µg/mL (≈ 8.19 µM); in data set [15], 1 µg/mL (≈ 4.09 µM); in data set [16], 1.8 µg/mL (≈ 7.37 µM); in [17], 25 µg/mL (≈ 102 µM); in [18] (human respiratory syncytial virus, read-out: Virus Yield EC50), 6 µg/mL (≈ 24.6 µM). For the same molecule, the CC50 in [7] was above 100 µg/mL; in data set [7] (CPE-inhibition (CC50), parallel to CMV CPE-inhibition, Table 6), 118 µg/mL; in [7] (CPE-inhibition (CC50), parallel to RSV A2 CPE-inhibition), above 1000 µg/mL; in [7] (NR = Neutral Red cell count (CC50)), 40 µg/mL; in data set [7] (Viral count or Plaque Reduction (CC50), parallel to RSV A2 viral count, Table 5) it was above 1000 µg/mL; in [7] (Virus Yield (CC50), parallel to RSV A2 virus yield test) it was 71 µg/mL. Besides, the “Virus Yield SI = CC50/EC90” value in data set [18] (RSV, A2) came out at 12. Moreover, in [18] (human respiratory syncytial virus, read-out: Virus Yield EC90), the EC90 – broadly, the concentration at which the effect reaches the 90% level – amounted to 6 µg/mL (≈ 24.6 µM).
